Assay results taken from ChEMBL document CHEMBL1201862, “PubChem BioAssay data set” (2004).
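Method: 48-hour compound exposure of cells in 96-well plates, five concentrations, linear interpolation of endpoints. GI50 = concentration required for 50% inhibition of growth.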 Active and inactive are the calls of the source. Cut-off read from the data, not from the text of the source: active = GI50 up to about 1.1 µM and inactive = higher.

Assays:
Assay in all cases: growth of human tumour cells (NCI), 48 h
786-0 = system: 786-0
A498 = system: A498
A549 = system: A549
ACHN = system: ACHN
CAKI-1 = system: CAKI-1
CCRF-CEM = system: CCRF-CEM
COLO 205 = system: COLO 205
DLD-1 = system: DLD-1
DMS-114 = system: DMS-114
DMS-273 = system: DMS-273
EKVX = system: EKVX
HCC 2998 = system: HCC 2998
HCT-116 = system: HCT-116
HL-60 = system: HL-60
HOP-18 = system: HOP-18
HOP-62 = system: HOP-62
HOP-92 = system: HOP-92
HT-29 = system: HT-29
IGROV-1 = system: IGROV-1
K562 = system: K562
KM-20L2 = system: KM-20L2
KM12 = system: KM12
LOX IMVI = system: LOX IMVI
LXFL 529 = system: LXFL 529
M14 = system: M14
M19-MEL = system: M19-MEL
MOLT-4 = system: MOLT-4
Malme-3M = system: Malme-3M
NCI-H226 = system: NCI-H226
NCI-H23 = system: NCI-H23
NCI-H460 = system: NCI-H460
NCI-H522 = system: NCI-H522
OVCAR-3 = system: OVCAR-3
OVCAR-4 = system: OVCAR-4
OVCAR-5 = system: OVCAR-5
OVCAR-8 = system: OVCAR-8
RPMI-8226 = system: RPMI-8226
RXF 393 = system: RXF 393
SF-268 = system: SF-268
SF-295 = system: SF-295
SF-539 = system: SF-539
SK-MEL-28 = system: SK-MEL-28
SK-OV-3 = system: SK-OV-3
SN12C = system: SN12C
SNB-19 = system: SNB-19
SNB-75 = system: SNB-75
SNB-78 = system: SNB-78
SR = system: SR
SW-620 = system: SW-620
TK-10 = system: TK-10
U-251 = system: U-251
UACC-257 = system: UACC-257
UACC-62 = system: UACC-62
UO-31 = system: UO-31
XF498 = system: XF498
HCT-15 = system: HCT-15
SK-MEL-2 = system: SK-MEL-2
SK-MEL-5 = system: SK-MEL-5
RXF 631 = system: RXF 631

Measured: GI50

CN1C(=O)CC(CC(=O)C2CCCCC2=O)CC1=O (configuration not stated)
inactive: 786-0 > 100 µM | A498 > 100 µM | A549 > 100 µM | ACHN > 100 µM | CAKI-1 > 100 µM | CCRF-CEM > 100 µM | COLO 205 > 100 µM | DLD-1 > 100 µM | DMS-114 > 100 µM | DMS-273 > 100 µM | EKVX > 100 µM | HCC 2998 > 100 µM | HCT-116 > 100 µM | HL-60 > 100 µM | HOP-18 > 100 µM | HOP-62 > 100 µM | HOP-92 > 100 µM | HT-29 > 100 µM | IGROV-1 > 100 µM | K562 > 100 µM | KM-20L2 > 100 µM | KM12 > 100 µM | LOX IMVI > 100 µM | LXFL 529 > 100 µM | M14 > 100 µM | M19-MEL > 100 µM | MOLT-4 > 100 µM | Malme-3M > 100 µM | NCI-H226 > 100 µM | NCI-H23 > 100 µM | NCI-H460 > 100 µM | NCI-H522 > 100 µM | OVCAR-3 > 100 µM | OVCAR-4 > 100 µM | OVCAR-5 > 100 µM | OVCAR-8 > 100 µM | RPMI-8226 > 100 µM | RXF 393 > 100 µM | SF-268 > 100 µM | SF-295 > 100 µM | SF-539 > 100 µM | SK-MEL-28 > 100 µM | SK-OV-3 > 100 µM | SN12C > 100 µM | SNB-19 > 100 µM | SNB-75 > 100 µM | SNB-78 > 100 µM | SR > 100 µM | SW-620 > 100 µM | TK-10 > 100 µM | U-251 > 100 µM | UACC-257 > 100 µM | UACC-62 > 100 µM | UO-31 > 100 µM | XF498 > 100 µM

O=C(CN(c1ccccc1)c1ccccc1)N1c2ccccc2C2C=CC=CC21 (configuration not stated)
16.7 µM: HCT-15
inactive: 786-0 22.6 µM | A498 32.4 µM | A549 23.8 µM | ACHN 24 µM | CAKI-1 18.3 µM | CCRF-CEM 9.42 µM | COLO 205 11 µM | DLD-1 25.6 µM | DMS-114 7.38 µM | DMS-273 22 µM | EKVX 24.3 µM | HCT-116 13.8 µM | HL-60 7.23 µM | HOP-18 25.6 µM | HOP-62 20.1 µM | HT-29 22.2 µM | IGROV-1 21.3 µM | K562 14.3 µM | KM-20L2 24.2 µM | KM12 27.3 µM | LOX IMVI 18.2 µM | LXFL 529 16 µM | M14 25.6 µM | M19-MEL 21.5 µM | MOLT-4 8.05 µM | Malme-3M 21.6 µM | NCI-H226 18.5 µM | NCI-H23 23.2 µM | NCI-H460 19.3 µM | NCI-H522 18 µM | OVCAR-3 17.4 µM | OVCAR-4 11.1 µM | OVCAR-5 24 µM | OVCAR-8 20.7 µM | RPMI-8226 8.22 µM | RXF 393 30.5 µM | SF-268 26.5 µM | SF-295 24.5 µM | SF-539 18.8 µM | SK-MEL-28 30.4 µM | SK-MEL-2 18.1 µM | SK-MEL-5 15.6 µM | SK-OV-3 23.6 µM | SN12C 8.34 µM | SNB-19 17.5 µM | SNB-75 18.1 µM | SNB-78 36.8 µM | SW-620 23.7 µM | TK-10 24.3 µM | U-251 21.3 µM | UACC-257 18.3 µM | UACC-62 21.1 µM | UO-31 30.1 µM | XF498 19.6 µM
active: SR 0.579 µM

C/C(=N\Nc1ccc([N+](=O)[O-])cc1)C(=O)N(C)Nc1ccccc1
48.1 µM: HCT-15
inactive: 786-0 > 100 µM | A498 29 µM | A549 40.5 µM | ACHN 35.4 µM | CCRF-CEM > 100 µM | COLO 205 58.3 µM | DLD-1 > 100 µM | DMS-114 48 µM | DMS-273 69.8 µM | EKVX 34.5 µM | HCC 2998 33.8 µM | HL-60 65.3 µM | HOP-18 > 100 µM | HOP-62 > 100 µM | HOP-92 53.7 µM | HT-29 66.8 µM | IGROV-1 58.9 µM | K562 63.2 µM | KM-20L2 60.4 µM | KM12 24 µM | LOX IMVI 64.4 µM | LXFL 529 52.6 µM | M14 43.2 µM | M19-MEL 69.5 µM | MOLT-4 41 µM | NCI-H226 38.9 µM | NCI-H23 58.5 µM | NCI-H460 47.1 µM | NCI-H522 52.8 µM | OVCAR-3 43.9 µM | OVCAR-4 47.2 µM | OVCAR-8 51.4 µM | RPMI-8226 76 µM | RXF 393 58.1 µM | SF-295 34.5 µM | SF-539 76.4 µM | SK-MEL-2 29.1 µM | SK-OV-3 > 100 µM | SN12C 74 µM | SNB-19 > 100 µM | SNB-75 27.6 µM | SR 47.8 µM | SW-620 > 100 µM | TK-10 64.3 µM | U-251 62.1 µM | UACC-257 31.6 µM | UACC-62 45.2 µM | UO-31 39.9 µM | XF498 63.1 µM

O=C(O)C(CS)NCc1c2ccccc2nc2ccccc12 (configuration not stated)
inactive: 786-0 55.2 µM | A549 91.6 µM | ACHN 42.3 µM | CAKI-1 34.4 µM | CCRF-CEM 19 µM | COLO 205 > 100 µM | DLD-1 24.4 µM | DMS-273 27 µM | EKVX 38.5 µM | HCC 2998 40.6 µM | HCT-116 16.7 µM | HL-60 22.3 µM | HOP-92 25.9 µM | HT-29 35.6 µM | IGROV-1 27 µM | K562 26.1 µM | KM-20L2 41.6 µM | KM12 26.9 µM | LOX IMVI 30.5 µM | LXFL 529 39.7 µM | M19-MEL 34.9 µM | MOLT-4 15.3 µM | Malme-3M 38.2 µM | NCI-H226 > 100 µM | NCI-H23 37.8 µM | NCI-H460 42.5 µM | NCI-H522 25 µM | OVCAR-3 38.9 µM | OVCAR-4 12.9 µM | OVCAR-5 > 100 µM | OVCAR-8 32.6 µM | RPMI-8226 22 µM | RXF 393 24.2 µM | RXF 631 22.3 µM | SF-268 40.7 µM | SF-295 43.2 µM | SF-539 33.9 µM | SK-MEL-28 72.6 µM | SK-MEL-2 68.2 µM | SK-OV-3 > 100 µM | SN12C 34.2 µM | SNB-19 58.6 µM | SNB-75 65.8 µM | SR 19.5 µM | SW-620 37.4 µM | TK-10 78.2 µM | U-251 92 µM | UACC-257 57.8 µM | UO-31 18.5 µM | XF498 15.5 µM
31.6 µM: HCT-15
